We go through 3 substances from patent US20020037531A1, “Expression cloning of protein targets for phospholipids” (priority 1999, published 2002).

One assay concerns the target PH domain of Akt (Homo sapiens, UniProt P31749). The conditions noted are these: two published studies; cited from earlier work.
A further assay deals with T1, PH domain of PDK1 (Homo sapiens, UniProt O15530).
T1 sequence (O15530 459-550 limits assumed): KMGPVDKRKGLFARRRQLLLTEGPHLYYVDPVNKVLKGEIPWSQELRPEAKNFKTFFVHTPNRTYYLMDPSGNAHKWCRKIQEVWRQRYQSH
Particulars: literature, relative affinities; cited from earlier work.

The target in a further assay is T2, PHISH (Mus musculus, UniProt Q9QXT1).
T2 construct: the gene for PHISH isolated from the expression screen encodes the entire protein; made in house; host or cells: in vitro transcription/translation (reticulocyte lysate) of a clone from a murine spleen cDNA library in pCS2(+)
T2 sequence (Q9QXT1 1-280): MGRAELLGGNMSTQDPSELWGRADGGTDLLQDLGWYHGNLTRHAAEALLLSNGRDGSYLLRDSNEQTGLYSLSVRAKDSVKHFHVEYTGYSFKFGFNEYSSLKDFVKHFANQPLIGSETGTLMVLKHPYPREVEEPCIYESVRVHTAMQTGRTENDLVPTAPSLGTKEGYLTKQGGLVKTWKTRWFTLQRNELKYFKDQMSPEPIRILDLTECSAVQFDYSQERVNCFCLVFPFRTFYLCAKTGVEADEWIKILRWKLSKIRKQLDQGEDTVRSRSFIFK
Put plainly: Competition binding of non-biotinylated lipids against biotinylated PtdIns-3,4,5-P3 on avidin beads. Details: species or system murine. The conditions noted are these: for relative affinity for PHISH in competition binding studies: FIG. 4B; for displacement of PHISH from PtdIns-3,4,5-P3-biotin bound to avidin beads: FIG. 4B legend, compared with PtdIns-4,5-P2. Here is the method: (§1) Binding and Isolation of Radiolabeled In Vitro Translated Proteins with Biotinylated Phosphoinositides. Avidin beads (Ultralink immobilized Neutravidin™, Pierce Chemical) were washed twice with 5 volumes of wash/binding (WB) buffer (10 mM HEPES pH=7.4, 150 mM NaCl, 0.5% NP-40, 5 mM DTT). The beads were then reconstituted in 2×volume of WB buffer and the biotinylated phosphoinositide was added. Generally, 0.1 μl of 100 μM biotinylated lipid was bound per 1 μl of packed avidin beads. The biotinylated lipid was incubated with the beads for 1-2 hours at 4° C. with gentle agitation and then washed twice with 10×-bead volume of WB buffer to remove excess ligand. Control beads without biotinylated lipid were prepared in an identical manner but without the addition of the lipid. 5 μl of the ^35S-labelling reaction containing the in vitro transcribed/translated protein was then added to the tubes and the protein was allowed to bind for 2 hours at 4° C. with gentle agitation. The tubes were then centrifuged briefly, the beads were washed 2×with 0.5 ml WB buffer, and the bound proteins were eluted by boiling the beads in 20 μl Laemmli sample buffer containing 5% 2-mercaptoethanol. The proteins were then separated on a 13.75% SDS-PAGE gel. Following electrophoresis the gel was soaked in EnHance (Dupont/NEN) for 1 hour and then in a 7.5% w/v solution of PEG-3350 for 1 hour. The gel was then dried and subjected to autoradiography.
Competition Binding of Isolated Proteins for Non-biotinylated Lipids over Biotinylated Lipids. […] Binding was quantitated by measuring the intensities of bands from the autoradiogram or by scintillation counting of the eluted proteins in Laemmli sample buffer using Opti-fluor (Packard). Binding curves were modeled by the equation: […]
where % bound represents the quantity of protein bound to the biotinylated lipid coated beads in the presence of a concentration C of competing lipid. IC50 is the molar excess of competitor C required to reduce the % bound to 50% of its maximal value in the absence of competitor.
In Vitro Translation Expression Cloning. A murine spleen cDNA library containing 2×10^5 independent clones was divided into 1700 individual small pools. The cDNAs in this library had been cloned into the in vitro transcription vector pCS2(+) under control of the SP6 promoter. Individual cDNAs from positive pools were isolated from the other cDNAs of the pool using a 96-well format as described previously. The individual cDNAs were sequenced (Harvard Biopolymer Facility) and compared with known sequences by searching GenBank databases.

For the next assay, the target named is T3, PH domain of EST684797 (Homo sapiens, UniProt Q9UN19).
T3 sequence (Q9UN19 164-259): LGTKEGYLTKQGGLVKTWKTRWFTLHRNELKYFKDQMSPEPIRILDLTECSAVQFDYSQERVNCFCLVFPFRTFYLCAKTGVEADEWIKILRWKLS
Particulars: literature; cited from earlier work.

The target of assay [1] is MBP-Akt PH fusion protein (Mus musculus, UniProt P31750). Put plainly: Competition binding of non-biotinylated lipids against biotinylated PtdIns-3,4,5-P3 on avidin beads. Particulars: FIG. 2C legend; compared with PtdIns-4,5-P2.
Description: The proteins were expressed by transcribing/translating 0.01-1 μg of DNA of MBP or MBP-Akt PH with the Promega TnT Coupled Reticulocyte Lysate System using SP6 RNA polymerase and ^35S-methionine (in vivo labeling grade, Amersham) according to the manufacturers protocol.
Binding and Isolation of Radiolabeled In Vitro Translated Proteins with Biotinylated Phosphoinositides. Avidin beads (Ultralink immobilized Neutravidin™, Pierce Chemical) were washed twice with 5 volumes of wash/binding (WB) buffer (10 mM HEPES pH=7.4, 150 mM NaCl, 0.5% NP-40, 5 mM DTT). The beads were then reconstituted in 2×volume of WB buffer and the biotinylated phosphoinositide was added. Generally, 0.1 μl of 100 μM biotinylated lipid was bound per 1 μl of packed avidin beads. The biotinylated lipid was incubated with the beads for 1-2 hours at 4° C. with gentle agitation and then washed twice with 10×-bead volume of WB buffer to remove excess ligand. […]
Competition Binding of Isolated Proteins for Non-biotinylated Lipids over Biotinylated Lipids. […] Binding was quantitated by measuring the intensities of bands from the autoradiogram or by scintillation counting of the eluted proteins in Laemmli sample buffer using Opti-fluor (Packard). […]
The target of assay [2] is T4, PDK1 (C-terminal fragment with PH domain) (Mus musculus, UniProt Q9Z2A0).
T4 construct: the first in-frame AUG codon appears at the end of the kinase domain such that only the entire PH domain of PDK1 is translated; made in house; host or cells: in vitro transcription/translation (reticulocyte lysate) of a clone from a murine spleen cDNA library in pCS2(+)
T4 sequence (Q9Z2A0 462-553 limits assumed): T1 sequence (O15530 459-550 limits assumed) with R88Q, H92N
Put plainly: Binding of 35S-labeled in vitro translated protein to avidin beads pre-bound with biotinylated phosphoinositide. On the set-up: species or system murine. The conditions noted are these: FIG. 3A top panel right. Here is the method:
as §1, with “The gel was then dried and subjected to autoradiography.” left out

Substitutions are numbered along the chain they refer to.

PH domain of Akt, sequence (P31749 5-108 limits assumed): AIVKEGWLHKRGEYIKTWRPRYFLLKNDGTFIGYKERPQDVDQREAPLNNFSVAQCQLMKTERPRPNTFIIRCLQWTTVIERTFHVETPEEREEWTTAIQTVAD
MBP-Akt PH fusion protein, sequence (P31750 1-130): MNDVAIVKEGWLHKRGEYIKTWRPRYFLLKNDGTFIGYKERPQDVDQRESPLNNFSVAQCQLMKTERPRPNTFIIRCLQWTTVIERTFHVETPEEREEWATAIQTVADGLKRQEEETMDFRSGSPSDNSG

In the case of “phosphatidylinositol-4,5-bisphosphate [PtdIns-4,5-P2]”, on PH domain of Akt, the “rank order of affinities for the PH domain of Akt” value was “PtdIns-3,4,5-P3>PtdIns-3,4-P2>>PtdIns-4,5-P2”. Besides, at PH domain of PDK1, the “affinity for the PH domain of PDK1” value is on record as “much lower affinity”. Moreover, on PHISH, the “relative affinity for PHISH in competition binding studies” value (shortened to “relative affinity for PHISH”) is reported as “significantly lower affinity”.
With “phosphatidylinositol-3,4,5-trisphosphate [PtdIns-3,4,5-P3]”, the “affinity for the PH domain of PDK1” value at PH domain of PDK1 is recorded as “four-fold higher affinity”. Besides, on PH domain of EST684797, the “binding to the PH domain of EST684797” value is “binds tightly and selectively”. Moreover, at PHISH, the “relative affinity for PHISH” value is listed as “equal affinity” and the “displacement of PHISH from PtdIns-3,4,5-P3-biotin bound to avidin beads” value is “preferentially displace”.
Regarding “phosphatidylinositol-3,4-bisphosphate [PtdIns-3,4-P2]”, in assay [1], the “displacement of MBP-PH from PtdIns-3,4,5-P3-biotin” value was “preferentially displace”. The “rank order of affinities for the PH domain of Akt” value on PH domain of Akt is “PtdIns-3,4,5-P3>PtdIns-3,4-P2>>PtdIns-4,5-P2”. Moreover, the “binding of the expressed purified PDK1 fragment (single clone)” value in assay [2] was “apparent lower affinity than for PtdIns-3,4,5-P3”. For the same substance, the “binding to the PH domain of EST684797” value on PH domain of EST684797 is “binds tightly and selectively”. Further, on PHISH, the “relative affinity for PHISH” value is “equal affinity” and the “displacement of PHISH from PtdIns-3,4,5-P3-biotin bound to avidin beads” value is “preferentially displace”.
